Measured values taken from patent US9139532B2, “Pyrazolyl guanidine F1F0-atpase inhibitors and therapeutic uses thereof” (Lycera Corporation, priority 2010, dated 2015).
Read-outs that look alike come from different tables or passages of the source.

Columns and labels:
[1] = target: T1, F1F0-ATPase (Bos taurus, UniProt P13621); experiment: Inhibition of F1F0-ATPase activity in synthesizing ATP; type: biochemical; conditions: inhibition of ATP synthesis by F1F0-ATPase; read-out: ATP Syn IC50
T1 construct: from tissue

[2] = tested on: Ramos cells; experiment: Cytotoxicity in Ramos cells; type: cell-based; conditions: read-out: Ramos Cell EC50
[3] = Homo sapiens, cytotoxicity in Ramos cells

Structure (SMILES)	IC50 [1]	EC50 [2, 3]	EC50 ([2]; Homo sapiens, Ramos)	EC50 ([2]; cytotoxicity in Ramos cells)
CC(C)(C)CN/C(=N/C(=O)c1ccc(C(F)(F)F)nc1)Nc1cc(C(F)(F)F)[nH]n1 [Compound A-80]	< 10 µM	< 10 µM	–	–
N#Cc1ccc(C(=O)/N=C(/NCc2ccc(F)cc2Cl)Nc2cc(C(F)(F)F)[nH]n2)cc1 [Compound A-81]	< 10 µM	< 10 µM	–	–
N#Cc1cccc(C(=O)/N=C(/NCc2ccc(F)cc2Cl)Nc2cc(C(F)(F)F)[nH]n2)c1 [Compound A-82]	< 10 µM	–	< 10 µM	–
O=C(/N=C(/NCc1ccc(F)cc1Cl)Nc1cc(C(F)(F)F)[nH]n1)c1ccc(C(F)F)cc1 [Compound A-83]	< 10 µM	< 10 µM	–	–
Cc1cc(C(=O)/N=C(\Nc2cc(C(F)(F)F)[nH]n2)NC(C)(C)C)ccn1 [Compound A-84]	< 10 µM	> 10 µM	–	–
Cc1cc(C(=O)/N=C(/NCC(C)(C)C)Nc2cc(C(F)(F)F)[nH]n2)ccn1 [Compound A-85]	< 10 µM	> 10 µM	–	–
Cc1cc(C(=O)/N=C(/NCc2ccc(F)cc2Cl)Nc2cc(C(F)(F)F)[nH]n2)ccn1 [Compound A-86]	< 10 µM	> 10 µM	–	–
O=C(/N=C(\Nc1cc(C(F)(F)F)[nH]n1)NC1CCCCCC1)c1ccc(C(F)F)cc1 [Compound A-87]	< 10 µM	< 10 µM	–	–
CC(C)(C)CN/C(=N/C(=O)c1ccc(F)c(F)c1)Nc1cc(C(F)F)[nH]n1 [Compound A-88]	< 10 µM	< 10 µM	–	–
CC(N/C(=N\C(=O)c1ccc(C(F)(F)F)cc1)Nc1cc(C(F)(F)F)n[nH]1)c1cccc(Cl)c1 (stereo not shown) [Compound A-89]	< 10 µM	< 10 µM	–	–
O=C(/N=C(/Nc1cc(C(F)(F)F)n[nH]1)NC1CCCC1)c1ccc(C(F)(F)F)cc1 [Compound A-92]	< 10 µM	< 10 µM	–	–
C[C@H](N/C(=N\C(=O)c1ccc(C(F)(F)F)cc1)Nc1cc(C(F)(F)F)n[nH]1)C1CCCCC1 [Compound A-94]	< 10 µM	< 10 µM	–	–
O=C(/N=C(\Nc1cc(C(F)(F)F)n[nH]1)NC1CCOCC1)c1ccc(C(F)(F)F)cc1 [Compound A-95]	< 10 µM	< 10 µM	–	–
COCC(C)N/C(=N/C(=O)c1ccc(C(F)(F)F)cc1)Nc1cc(C(F)(F)F)n[nH]1 (stereo not shown) [Compound A-97]	< 10 µM	< 10 µM	–	–
CC(C)N/C(=N/C(=O)c1ccc(F)c(F)c1)Nc1cc(C(F)(F)F)n[nH]1 [Compound A-98]	< 10 µM	< 10 µM	–	–
O=C(/N=C(\Nc1cc(C(F)(F)F)n[nH]1)NC1CCC1)c1ccc(F)c(F)c1 [Compound A-99]	< 10 µM	< 10 µM	–	–
O=C(/N=C(/Nc1cc(C(F)(F)F)n[nH]1)NC1CCCC1)c1ccc(F)c(F)c1 [Compound A-100]	< 10 µM	< 10 µM	–	–
C[C@@H](N/C(=N\C(=O)c1ccc(F)c(F)c1)Nc1cc(C(F)(F)F)n[nH]1)C1CCCCC1 [Compound A-102]	< 10 µM	< 10 µM	–	–
O=C(/N=C(/Nc1cc(C(F)(F)F)n[nH]1)NC1CCOC1)c1ccc(F)c(F)c1 (stereo not shown) [Compound A-103]	< 10 µM	< 10 µM	–	–
CC(C)N/C(=N/C(=O)c1ccc(Cl)cc1)Nc1cc(C(F)(F)F)n[nH]1 [Compound A-107]	< 10 µM	< 10 µM	–	–
C[C@H](N/C(=N\C(=O)c1ccc(Cl)cc1)Nc1cc(C(F)(F)F)n[nH]1)C1CCCCC1 [Compound A-109]	< 10 µM	< 10 µM	–	–

Structure (SMILES)	IC50 [1]	EC50 [2, 3]	EC50 ([2]; Homo sapiens, Ramos)	EC50 ([2]; cytotoxicity in Ramos cells)
COCC(C)N/C(=N/C(=O)c1ccc(Cl)cc1)Nc1cc(C(F)(F)F)n[nH]1 (stereo not shown) [Compound A-111]	< 10 µM	< 10 µM	–	–
O=C(/N=C(/Nc1cc(C(F)(F)F)n[nH]1)NC1CCS(=O)(=O)C1)c1ccc(Cl)cc1 (stereo not shown) [Compound A-112]	< 10 µM	> 10 µM	–	–
O=C(/N=C(\Nc1cc(C(F)(F)F)n[nH]1)NC1CCC1)c1ccc(Cl)c(F)c1 [Compound A-114]	< 10 µM	< 10 µM	–	–
O=C(/N=C(/Nc1cc(C(F)(F)F)n[nH]1)NC1CCCC1)c1ccc(Cl)c(F)c1 [Compound A-115]	< 10 µM	< 10 µM	–	–
CCC(C)(C)N/C(=N/C(=O)c1ccc(Cl)c(F)c1)Nc1cc(C(F)(F)F)n[nH]1 [Compound A-116]	< 10 µM	< 10 µM	–	–
C[C@@H](N/C(=N\C(=O)c1ccc(Cl)c(F)c1)Nc1cc(C(F)(F)F)n[nH]1)C1CCCCC1 [Compound A-117]	< 10 µM	< 10 µM	–	–
O=C(/N=C(\Nc1cc(C(F)(F)F)n[nH]1)NC1CCCOC1)c1ccc(Cl)c(F)c1 (stereo not shown) [Compound A-119]	< 10 µM	< 10 µM	–	–
COCC(C)N/C(=N/C(=O)c1ccc(Cl)c(F)c1)Nc1cc(C(F)(F)F)n[nH]1 (stereo not shown) [Compound A-120]	< 10 µM	< 10 µM	–	–
O=C(/N=C(/Nc1cc(C(F)(F)F)n[nH]1)NC1CCS(=O)(=O)C1)c1ccc(Cl)c(F)c1 (stereo not shown) [Compound A-121]	< 10 µM	> 10 µM	–	–
O=C(/N=C(\Nc1cc(C(F)(F)F)[nH]n1)NC1CCCC1)c1ccc(Cl)cc1 [Compound A-122]	< 10 µM	< 10 µM	–	–
CCC(C)(C)N/C(=N/C(=O)c1ccc(Cl)cc1)Nc1cc(C(F)(F)F)[nH]n1 [Compound A-123]	< 10 µM	< 10 µM	–	–
Cc1cc(N/C(=N\C(=O)c2ccc(C(F)(F)F)cc2)NC(C)(C)C)n[nH]1 [Compound A-125]	< 10 µM	–	–	< 10 µM
Cc1ccc(-c2cc(N/C(=N\C(=O)c3ccc(F)c(F)c3)Nc3cc(F)cc(Cl)c3)n[nH]2)cc1F [Compound A-126]	> 10 µM	–	–	> 10 µM
CC(C)(C)N/C(=N/C(=O)c1cccc(C(F)(F)F)c1)Nc1cc(-c2cccc(Cl)c2)[nH]n1 [Compound A-128]	< 10 µM	–	–	< 10 µM
CC(C)(C)NC(=NC(=O)c1ccc(Cl)cc1)Nc1cc(-c2ccc(Cl)cc2)n[nH]1 [Compound A-132]	< 10 µM	< 10 µM	–	–
CC(C)(C)NC(=NC(=O)c1cccc(F)c1)Nc1cc(-c2ccc(Cl)cc2)n[nH]1 [Compound A-133]	< 10 µM	< 10 µM	–	–
CC(C)(C)N/C(=N/C(=O)c1ccc(F)cc1)Nc1cc(-c2cccc(Cl)c2)[nH]n1 [Compound A-134]	< 10 µM	–	–	< 10 µM
CC(C)(C)NC(=NC(=O)c1ccc(F)cc1)Nc1cc(-c2ccc(Cl)cc2)n[nH]1 [Compound A-135]	< 10 µM	< 10 µM	–	–
CC(C)(C)N/C(=N/C(=O)c1ccc(F)c(F)c1)Nc1cc(-c2ccc(Cl)cc2)[nH]n1 [Compound A-137]	< 10 µM	–	–	< 10 µM
O=C(N=C(Nc1cc(-c2ccc(F)cc2)n[nH]1)NC1CCOCC1)c1ccc(Cl)c(F)c1 [Compound A-139]	> 10 µM	> 10 µM	–	–
CC(C)(C)N/C(=N/C(=O)c1ccc(Cl)c(F)c1)Nc1cc(-c2ccccc2)[nH]n1 [Compound A-141]	< 10 µM	–	–	< 10 µM

Now from value to molecule, other results behind:

IC50 [1]	Structure (SMILES)	EC50 [2, 3]	EC50 ([2]; Homo sapiens, Ramos)	EC50 ([2]; cytotoxicity in Ramos cells)
< 10 µM	CC(C)N/C(=N/C(=O)c1ccc(C(F)(F)F)cc1)Nc1cc(C(F)(F)F)n[nH]1 [Compound A-90]	< 10 µM	–	–
< 10 µM	O=C(/N=C(\Nc1cc(C(F)(F)F)n[nH]1)NC1CCC1)c1ccc(C(F)(F)F)cc1 [Compound A-91]	< 10 µM	–	–
< 10 µM	CCC(C)(C)N/C(=N/C(=O)c1ccc(C(F)(F)F)cc1)Nc1cc(C(F)(F)F)n[nH]1 [Compound A-93]	< 10 µM	–	–
< 10 µM	O=C(/N=C(\Nc1cc(C(F)(F)F)n[nH]1)NC1CCCOC1)c1ccc(C(F)(F)F)cc1 (stereo not shown) [Compound A-96]	< 10 µM	–	–
< 10 µM	CCC(C)(C)N/C(=N/C(=O)c1ccc(F)c(F)c1)Nc1cc(C(F)(F)F)n[nH]1 [Compound A-101]	< 10 µM	–	–
< 10 µM	O=C(/N=C(\Nc1cc(C(F)(F)F)n[nH]1)NC1CCOCC1)c1ccc(F)c(F)c1 [Compound A-104]	> 10 µM	–	–
< 10 µM	O=C(/N=C(\Nc1cc(C(F)(F)F)n[nH]1)NC1CCCOC1)c1ccc(F)c(F)c1 (stereo not shown) [Compound A-105]	< 10 µM	–	–
< 10 µM	COCC(C)N/C(=N/C(=O)c1ccc(F)c(F)c1)Nc1cc(C(F)(F)F)n[nH]1 (stereo not shown) [Compound A-106]	< 10 µM	–	–
< 10 µM	O=C(/N=C(\Nc1cc(C(F)(F)F)n[nH]1)NC1CCC1)c1ccc(Cl)cc1 [Compound A-108]	< 10 µM	–	–
< 10 µM	O=C(/N=C(\Nc1cc(C(F)(F)F)n[nH]1)NC1CCCOC1)c1ccc(Cl)cc1 (stereo not shown) [Compound A-110]	< 10 µM	–	–
< 10 µM	CC(C)N/C(=N/C(=O)c1ccc(Cl)c(F)c1)Nc1cc(C(F)(F)F)n[nH]1 [Compound A-113]	< 10 µM	–	–
< 10 µM	O=C(/N=C(\Nc1cc(C(F)(F)F)n[nH]1)NC1CCOCC1)c1ccc(Cl)c(F)c1 [Compound A-118]	< 10 µM	–	–
< 10 µM	O=C(/N=C(\Nc1cc(C(F)(F)F)[nH]n1)NC1CCOCC1)c1ccc(Cl)cc1 [Compound A-124]	> 10 µM	–	–
< 10 µM	CC(C)NC(=NC(=O)c1cccc(C#N)c1)Nc1cc(-c2ccc(F)cc2)n[nH]1 [Compound A-127]	> 10 µM	–	–
< 10 µM	CC(C)(C)N/C(=N/C(=O)c1cccc(Cl)c1)Nc1cc(-c2cccc(Cl)c2)[nH]n1 [Compound A-129]	–	–	< 10 µM
< 10 µM	CC(C)(C)NC(=NC(=O)c1cccc(Cl)c1)Nc1cc(-c2ccc(Cl)cc2)n[nH]1 [Compound A-130]	< 10 µM	–	–
< 10 µM	CC(C)(C)NC(=NC(=O)c1ccc(Cl)cc1)Nc1cc(-c2cccc(Cl)c2)[nH]n1 [Compound A-131]	< 10 µM	–	–
< 10 µM	CC(C)(C)N/C(=N/C(=O)c1ccc(F)c(F)c1)Nc1cc(-c2cccc(Cl)c2)[nH]n1 [Compound A-136]	–	–	< 10 µM
< 10 µM	CC(C)(C)N/C(=N/C(=O)c1ccc(C(F)(F)F)cc1)Nc1cc(-c2ccc(Cl)cc2)[nH]n1 [Compound A-138]	–	–	< 10 µM
> 10 µM	O=C(/N=C(\Nc1cc(-c2ccccc2)[nH]n1)NC1CCOCC1)c1ccc(Cl)c(F)c1 [Compound A-140]	–	–	> 10 µM
